Molecular target: T1, firefly luciferase enzyme (FLuc) (Photinus pyralis, UniProt P08659)
T1 construct: commercial purified enzyme (Promega E1701)
Test: bioluminescence read-out, 384-well plate
Format: biochemical
Settings: 10 µM ATP with 10 µM D-luciferin, 5 mM MgSO4; ATP and Mg needed for signal

T1 sequence (P08659 whole entry): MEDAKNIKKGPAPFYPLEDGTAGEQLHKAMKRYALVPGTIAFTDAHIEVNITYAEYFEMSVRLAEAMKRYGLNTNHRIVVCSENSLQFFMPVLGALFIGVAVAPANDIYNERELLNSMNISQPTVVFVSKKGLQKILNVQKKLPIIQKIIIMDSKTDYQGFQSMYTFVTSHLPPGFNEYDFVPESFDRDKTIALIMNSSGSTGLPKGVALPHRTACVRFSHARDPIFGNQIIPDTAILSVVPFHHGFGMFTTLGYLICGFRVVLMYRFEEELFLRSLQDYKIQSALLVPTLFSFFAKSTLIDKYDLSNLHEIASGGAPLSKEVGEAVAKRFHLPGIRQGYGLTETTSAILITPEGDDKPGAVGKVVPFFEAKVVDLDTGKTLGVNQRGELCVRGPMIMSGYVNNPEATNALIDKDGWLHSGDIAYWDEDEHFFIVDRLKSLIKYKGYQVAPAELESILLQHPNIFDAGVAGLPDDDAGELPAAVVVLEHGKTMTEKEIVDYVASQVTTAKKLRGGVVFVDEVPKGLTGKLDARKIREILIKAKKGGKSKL

Nc1ncnc2c1ncn2[C@@H]1O[C@H](COP(=O)(O)OP(=O)(O)OP(=O)(O)O)[C@@H](O)[C@H]1O [ATP]
bioluminescence read-out, 384-well plate: both ATP and Mg still need to be present in the FLuc reaction buffer

Reference: article PMC11628255, “Interference of metal ions on the bioluminescent signal of firefly, Renilla, and NanoLuc luciferases in high-throughput screening assays” (Frontiers in Chemistry, 2024)
